One compound from patent publication EP1441698B1, “FLASHMELT ORAL DOSAGE FORMULATION” (Otsuka Pharmaceutical Co., Ltd., priority 2001, dated 2003) can be followed below.

The nature of the series: Hygroscopicity: water content of crystals after storage in a desiccator (e.g. Karl Fischer method). The class given is physicochemical. The note with it: after 24 hours inside a dessicator at 60°C and a humidity of 100%. As for the experimental part: Aripiprazole Anhydride Crystals B of the present invention have low hygroscopicity. For example, Aripiprazole Anhydride Crystals B of the present invention maintain a water content of 0.4% or less after 24 hours inside a dessicator set at a temperature of 60°C and a humidity of 100%.
Well-known methods of measuring water content can be used as long as they are methods commonly used for measuring the water content of crystals. For example, a method such as the Karl Fischer method can be used.

In turn, `O=C1CCc2ccc(OCCCCN3CCN(c4cccc(Cl)c4Cl)CC3)cc2N1` [Aripiprazole Anhydride Crystals B, aripiprazole] showed a water content of no more than 0.4%.
